{"source": "paper PMC7026418", "about": "“The kinase polypharmacology landscape of clinical PARP inhibitors” (Scientific Reports, 2020)", "experiment_in_all_cases": "biochemical", "design_in_all_cases": "DiscoveRx KINOMEscan active site-directed competition binding; percent of control kinase bound to immobilised ligand", "key": {"[1]": {"target": "T1, ACVR1 (Homo sapiens, UniProt Q04771)", "T1 sequence (Q04771 1-509)": "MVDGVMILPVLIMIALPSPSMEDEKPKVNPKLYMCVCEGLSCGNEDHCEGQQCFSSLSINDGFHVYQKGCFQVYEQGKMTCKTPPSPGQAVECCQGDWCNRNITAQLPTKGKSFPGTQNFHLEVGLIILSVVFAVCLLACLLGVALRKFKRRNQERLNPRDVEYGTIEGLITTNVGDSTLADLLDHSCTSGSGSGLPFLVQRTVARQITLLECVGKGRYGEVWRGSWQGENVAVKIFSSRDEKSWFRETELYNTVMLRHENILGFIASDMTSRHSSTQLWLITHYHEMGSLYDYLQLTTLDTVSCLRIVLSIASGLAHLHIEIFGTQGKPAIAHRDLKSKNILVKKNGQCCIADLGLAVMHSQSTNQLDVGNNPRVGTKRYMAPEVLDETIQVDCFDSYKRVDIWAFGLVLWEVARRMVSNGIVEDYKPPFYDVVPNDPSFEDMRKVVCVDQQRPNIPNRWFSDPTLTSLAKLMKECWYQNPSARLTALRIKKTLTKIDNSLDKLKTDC"}, "[2]": {"target": "BLK (Homo sapiens, UniProt P51451)", "sequence (P51451 whole entry)": "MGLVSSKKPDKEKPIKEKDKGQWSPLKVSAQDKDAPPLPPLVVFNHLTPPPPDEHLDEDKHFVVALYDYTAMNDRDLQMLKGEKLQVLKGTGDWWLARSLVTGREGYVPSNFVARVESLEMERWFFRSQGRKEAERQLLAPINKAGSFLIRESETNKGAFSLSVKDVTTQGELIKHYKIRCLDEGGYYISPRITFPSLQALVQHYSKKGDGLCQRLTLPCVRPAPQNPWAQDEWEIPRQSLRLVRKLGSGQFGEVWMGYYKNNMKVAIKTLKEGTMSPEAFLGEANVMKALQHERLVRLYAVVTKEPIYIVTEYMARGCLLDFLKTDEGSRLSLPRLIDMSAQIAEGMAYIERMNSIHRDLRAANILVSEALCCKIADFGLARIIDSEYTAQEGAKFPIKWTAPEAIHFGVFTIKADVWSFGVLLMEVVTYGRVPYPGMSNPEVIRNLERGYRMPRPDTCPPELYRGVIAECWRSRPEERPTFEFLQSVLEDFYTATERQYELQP"}, "[3]": {"target": "BMPR1B (Homo sapiens, UniProt O00238)", "sequence (O00238 whole entry)": "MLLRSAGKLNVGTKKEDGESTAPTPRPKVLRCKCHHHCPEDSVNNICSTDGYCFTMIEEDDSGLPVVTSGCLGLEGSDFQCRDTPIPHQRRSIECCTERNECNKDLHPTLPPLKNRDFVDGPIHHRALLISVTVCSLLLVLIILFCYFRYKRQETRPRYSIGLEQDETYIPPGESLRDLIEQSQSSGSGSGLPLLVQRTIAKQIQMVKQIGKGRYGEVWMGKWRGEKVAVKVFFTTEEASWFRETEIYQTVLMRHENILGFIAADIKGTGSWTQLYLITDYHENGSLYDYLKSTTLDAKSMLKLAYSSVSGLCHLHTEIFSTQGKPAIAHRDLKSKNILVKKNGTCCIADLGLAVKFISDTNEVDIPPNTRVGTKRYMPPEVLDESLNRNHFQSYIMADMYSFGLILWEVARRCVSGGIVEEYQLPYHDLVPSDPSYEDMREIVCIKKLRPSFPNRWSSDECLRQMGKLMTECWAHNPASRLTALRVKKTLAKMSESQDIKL"}, "[4]": {"target": "T2, FLT3(R834Q) (Homo sapiens, UniProt P36888, R834Q)", "T2 sequence (P36888 1-993 R834Q)": "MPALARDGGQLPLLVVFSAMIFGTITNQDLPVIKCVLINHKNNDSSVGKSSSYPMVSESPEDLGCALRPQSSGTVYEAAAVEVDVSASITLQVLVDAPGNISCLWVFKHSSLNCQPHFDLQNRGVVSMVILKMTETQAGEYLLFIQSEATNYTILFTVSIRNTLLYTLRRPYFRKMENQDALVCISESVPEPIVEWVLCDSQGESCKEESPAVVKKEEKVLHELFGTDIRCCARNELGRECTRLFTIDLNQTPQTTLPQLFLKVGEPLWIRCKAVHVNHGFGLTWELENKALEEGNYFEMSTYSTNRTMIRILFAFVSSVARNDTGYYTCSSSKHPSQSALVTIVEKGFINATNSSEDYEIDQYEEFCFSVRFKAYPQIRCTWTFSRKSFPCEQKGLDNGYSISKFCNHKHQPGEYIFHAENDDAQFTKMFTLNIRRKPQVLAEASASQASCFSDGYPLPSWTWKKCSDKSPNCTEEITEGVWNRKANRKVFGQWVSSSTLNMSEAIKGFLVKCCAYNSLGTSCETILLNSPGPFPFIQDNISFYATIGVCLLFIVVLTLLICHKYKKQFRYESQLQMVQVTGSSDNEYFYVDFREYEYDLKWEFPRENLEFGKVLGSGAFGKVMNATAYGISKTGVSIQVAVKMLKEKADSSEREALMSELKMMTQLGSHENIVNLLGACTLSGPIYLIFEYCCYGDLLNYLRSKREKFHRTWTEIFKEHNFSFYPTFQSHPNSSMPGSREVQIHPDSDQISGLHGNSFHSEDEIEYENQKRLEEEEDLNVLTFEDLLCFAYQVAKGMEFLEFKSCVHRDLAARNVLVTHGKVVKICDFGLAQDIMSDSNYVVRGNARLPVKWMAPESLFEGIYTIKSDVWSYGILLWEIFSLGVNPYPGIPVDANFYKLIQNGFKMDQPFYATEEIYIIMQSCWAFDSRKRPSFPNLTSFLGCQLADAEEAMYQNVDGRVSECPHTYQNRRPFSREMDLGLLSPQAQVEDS"}, "[5]": {"target": "KIT-autoinhibited (Homo sapiens, UniProt P10721)"}, "[6]": {"target": "MAP4K4 (Homo sapiens, UniProt O95819)", "sequence (O95819 whole entry)": "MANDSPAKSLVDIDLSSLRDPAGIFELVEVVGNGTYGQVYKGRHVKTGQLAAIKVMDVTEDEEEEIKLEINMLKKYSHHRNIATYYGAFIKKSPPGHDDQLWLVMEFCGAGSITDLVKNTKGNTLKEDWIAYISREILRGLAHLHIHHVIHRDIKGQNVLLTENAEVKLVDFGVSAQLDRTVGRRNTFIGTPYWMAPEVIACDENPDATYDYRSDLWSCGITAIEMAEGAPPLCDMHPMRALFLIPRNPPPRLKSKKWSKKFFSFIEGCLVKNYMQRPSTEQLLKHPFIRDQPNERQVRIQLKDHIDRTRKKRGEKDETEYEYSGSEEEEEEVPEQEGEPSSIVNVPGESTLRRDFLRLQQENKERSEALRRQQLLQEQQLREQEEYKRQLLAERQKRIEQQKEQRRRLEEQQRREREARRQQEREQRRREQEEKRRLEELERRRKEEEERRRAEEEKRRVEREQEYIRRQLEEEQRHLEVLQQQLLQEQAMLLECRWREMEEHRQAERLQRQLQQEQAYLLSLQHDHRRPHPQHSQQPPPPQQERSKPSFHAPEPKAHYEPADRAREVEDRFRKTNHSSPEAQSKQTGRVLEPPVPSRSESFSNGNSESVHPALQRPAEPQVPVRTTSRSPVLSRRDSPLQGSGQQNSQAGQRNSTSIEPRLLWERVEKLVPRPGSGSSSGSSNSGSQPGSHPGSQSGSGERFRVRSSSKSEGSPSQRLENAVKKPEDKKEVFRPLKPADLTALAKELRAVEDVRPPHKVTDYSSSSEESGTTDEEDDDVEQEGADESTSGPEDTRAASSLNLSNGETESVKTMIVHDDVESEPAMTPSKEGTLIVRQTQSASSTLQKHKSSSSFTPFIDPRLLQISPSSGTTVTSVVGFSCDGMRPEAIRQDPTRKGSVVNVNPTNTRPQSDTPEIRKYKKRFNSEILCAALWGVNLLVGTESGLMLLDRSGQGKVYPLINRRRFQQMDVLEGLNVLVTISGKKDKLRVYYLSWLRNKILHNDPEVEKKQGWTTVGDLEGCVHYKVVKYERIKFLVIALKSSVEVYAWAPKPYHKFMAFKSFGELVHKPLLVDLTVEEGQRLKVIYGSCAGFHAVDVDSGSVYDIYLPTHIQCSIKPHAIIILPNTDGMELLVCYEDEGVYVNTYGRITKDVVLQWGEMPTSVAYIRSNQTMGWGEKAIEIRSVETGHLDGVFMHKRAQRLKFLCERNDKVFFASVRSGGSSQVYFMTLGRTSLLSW"}, "[7]": {"target": "PIK3CG (Homo sapiens, UniProt P48736)", "sequence (P48736 whole entry)": "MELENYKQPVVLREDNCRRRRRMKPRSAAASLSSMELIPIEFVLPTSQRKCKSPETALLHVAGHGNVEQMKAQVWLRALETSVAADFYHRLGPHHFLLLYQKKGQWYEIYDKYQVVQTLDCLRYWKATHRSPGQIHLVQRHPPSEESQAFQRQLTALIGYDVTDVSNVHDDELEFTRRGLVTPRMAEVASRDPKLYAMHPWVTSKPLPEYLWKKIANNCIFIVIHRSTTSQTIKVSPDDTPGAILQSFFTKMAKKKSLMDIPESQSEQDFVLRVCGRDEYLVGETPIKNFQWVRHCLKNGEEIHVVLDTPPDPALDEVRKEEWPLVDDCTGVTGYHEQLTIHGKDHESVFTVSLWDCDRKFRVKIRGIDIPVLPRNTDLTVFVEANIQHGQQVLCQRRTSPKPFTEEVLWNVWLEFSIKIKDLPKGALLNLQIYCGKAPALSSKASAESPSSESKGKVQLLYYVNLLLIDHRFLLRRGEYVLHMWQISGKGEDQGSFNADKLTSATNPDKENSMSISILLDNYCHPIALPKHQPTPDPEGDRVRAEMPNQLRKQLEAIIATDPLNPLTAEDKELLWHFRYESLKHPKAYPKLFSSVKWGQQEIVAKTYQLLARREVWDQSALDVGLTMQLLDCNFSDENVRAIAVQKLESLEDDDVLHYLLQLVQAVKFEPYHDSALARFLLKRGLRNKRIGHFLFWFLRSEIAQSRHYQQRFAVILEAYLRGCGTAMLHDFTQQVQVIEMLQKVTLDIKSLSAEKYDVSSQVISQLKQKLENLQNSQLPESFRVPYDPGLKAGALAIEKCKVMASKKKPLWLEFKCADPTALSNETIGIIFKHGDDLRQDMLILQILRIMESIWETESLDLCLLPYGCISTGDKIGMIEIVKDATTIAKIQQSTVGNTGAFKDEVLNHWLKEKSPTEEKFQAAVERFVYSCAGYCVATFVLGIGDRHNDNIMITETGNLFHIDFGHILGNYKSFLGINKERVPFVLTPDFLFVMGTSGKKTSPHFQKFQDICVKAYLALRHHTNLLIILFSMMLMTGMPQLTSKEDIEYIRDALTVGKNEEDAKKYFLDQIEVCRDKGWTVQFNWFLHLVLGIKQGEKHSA"}, "[8]": {"target": "PIM3 (Homo sapiens, UniProt Q86V86)"}, "[9]": {"target": "T3, SGK2 (Homo sapiens, UniProt Q9HBY8)", "T3 sequence (Q9HBY8 1-367)": "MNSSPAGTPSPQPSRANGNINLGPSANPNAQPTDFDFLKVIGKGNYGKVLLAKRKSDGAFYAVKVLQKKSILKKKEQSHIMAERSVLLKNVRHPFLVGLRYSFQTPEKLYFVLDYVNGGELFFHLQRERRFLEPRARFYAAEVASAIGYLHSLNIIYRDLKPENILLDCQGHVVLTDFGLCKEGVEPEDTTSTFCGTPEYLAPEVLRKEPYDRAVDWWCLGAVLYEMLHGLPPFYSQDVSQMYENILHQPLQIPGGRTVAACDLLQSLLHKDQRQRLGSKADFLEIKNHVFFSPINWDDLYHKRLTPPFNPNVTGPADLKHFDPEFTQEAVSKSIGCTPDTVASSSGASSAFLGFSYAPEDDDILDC"}, "[10]": {"target": "T4, SIK (Homo sapiens, UniProt P57059)", "T4 construct": "gene SIK1", "T4 sequence (P57059 whole entry)": "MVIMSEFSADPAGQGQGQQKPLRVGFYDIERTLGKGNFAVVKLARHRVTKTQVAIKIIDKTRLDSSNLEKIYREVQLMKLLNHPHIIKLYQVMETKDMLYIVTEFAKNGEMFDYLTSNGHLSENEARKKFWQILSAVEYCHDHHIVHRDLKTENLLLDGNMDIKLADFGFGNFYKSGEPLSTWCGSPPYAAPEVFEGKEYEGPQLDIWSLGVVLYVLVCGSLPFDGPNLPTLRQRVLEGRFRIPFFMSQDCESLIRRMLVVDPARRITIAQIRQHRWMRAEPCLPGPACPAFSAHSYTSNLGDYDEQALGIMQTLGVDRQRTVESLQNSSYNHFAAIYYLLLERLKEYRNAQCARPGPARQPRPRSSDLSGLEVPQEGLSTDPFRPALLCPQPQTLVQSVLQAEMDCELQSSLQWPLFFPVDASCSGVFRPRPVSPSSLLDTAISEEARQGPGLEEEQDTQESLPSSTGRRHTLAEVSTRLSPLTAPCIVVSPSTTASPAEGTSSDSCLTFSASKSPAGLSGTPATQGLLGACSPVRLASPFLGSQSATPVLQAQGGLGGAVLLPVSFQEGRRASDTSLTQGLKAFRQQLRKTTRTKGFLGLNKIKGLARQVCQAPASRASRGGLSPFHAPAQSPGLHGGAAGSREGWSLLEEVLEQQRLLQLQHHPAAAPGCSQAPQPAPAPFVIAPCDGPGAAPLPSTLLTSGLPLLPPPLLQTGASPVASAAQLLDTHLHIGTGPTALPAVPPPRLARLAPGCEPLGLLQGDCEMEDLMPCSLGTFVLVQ"}, "[11]": {"target": "STK35 (Homo sapiens, UniProt Q8TDR2)", "sequence (Q8TDR2 whole entry)": "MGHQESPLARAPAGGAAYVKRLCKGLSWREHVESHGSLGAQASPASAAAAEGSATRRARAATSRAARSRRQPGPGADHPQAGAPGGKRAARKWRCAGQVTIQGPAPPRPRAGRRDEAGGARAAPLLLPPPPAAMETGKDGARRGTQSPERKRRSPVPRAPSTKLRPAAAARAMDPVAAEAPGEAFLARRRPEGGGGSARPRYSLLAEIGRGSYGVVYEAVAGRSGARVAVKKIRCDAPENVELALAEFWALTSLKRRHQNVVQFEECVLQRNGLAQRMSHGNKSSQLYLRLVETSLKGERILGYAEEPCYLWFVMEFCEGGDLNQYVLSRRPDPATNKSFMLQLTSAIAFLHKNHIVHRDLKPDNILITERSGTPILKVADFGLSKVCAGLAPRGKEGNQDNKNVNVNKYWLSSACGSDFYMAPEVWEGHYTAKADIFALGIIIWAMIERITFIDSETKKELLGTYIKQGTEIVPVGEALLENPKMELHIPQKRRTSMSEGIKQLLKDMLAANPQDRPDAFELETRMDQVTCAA"}, "[12]": {"details": "read-out: Talazoparib (BMN 673) / %Ctrl @ 10000nM"}, "[13]": {"details": "read-out: Olaparib / %Ctrl @ 10000nM"}, "[14]": {"details": "read-out: Rucaparib / %Ctrl @ 10000nM, binding competition, % of control"}, "[15]": {"details": "read-out: Niraparib (MK-4827) / %Ctrl @ 10000nM"}}, "note": "Where two headings read alike, the source gives them in different places.", "data": [{"smiles": "Cn1ncnc1[C@H]1c2n[nH]c(=O)c3cc(F)cc(c23)N[C@@H]1c1ccc(F)cc1", "note": "[Talazoparib]", "values": [{"measurement": "percent of control binding at 10 µM", "setting": "[1]; [12]", "value": 95, "unit": "%"}, {"measurement": "percent of control binding at 10 µM", "setting": "[2]; [12]", "value": 99, "unit": "%"}, {"measurement": "percent of control binding at 10 µM", "setting": "[3]; [12]", "value": 100, "unit": "%"}, {"measurement": "percent of control binding at 10 µM", "setting": "[4]; [12]", "value": 100, "unit": "%"}, {"measurement": "percent of control binding at 10 µM", "setting": "[5]; [12]", "value": 100, "unit": "%"}, {"measurement": "percent of control binding at 10 µM", "setting": "[6]; [12]", "value": 100, "unit": "%"}, {"measurement": "percent of control binding at 10 µM", "setting": "[7]; [12]", "value": 62, "unit": "%"}, {"measurement": "percent of control binding at 10 µM", "setting": "[8]; [12]", "value": 100, "unit": "%"}, {"measurement": "percent of control binding at 10 µM", "setting": "[9]; [12]", "value": 89, "unit": "%"}, {"measurement": "percent of control binding at 10 µM", "setting": "[10]; [12]", "value": 78, "unit": "%"}, {"measurement": "percent of control binding at 10 µM", "setting": "[11]; [12]", "value": 100, "unit": "%"}]}, {"smiles": "O=C(c1cc(Cc2n[nH]c(=O)c3ccccc23)ccc1F)N1CCN(C(=O)C2CC2)CC1", "note": "[Olaparib]", "values": [{"measurement": "percent of control binding at 10 µM", "setting": "[1]; [13]", "value": 96, "unit": "%"}, {"measurement": "percent of control binding at 10 µM", "setting": "[2]; [13]", "value": 90, "unit": "%"}, {"measurement": "percent of control binding at 10 µM", "setting": "[3]; [13]", "value": 81, "unit": "%"}, {"measurement": "percent of control binding at 10 µM", "setting": "[4]; [13]", "value": 79, "unit": "%"}, {"measurement": "percent of control binding at 10 µM", "setting": "[5]; [13]", "value": 93, "unit": "%"}, {"measurement": "percent of control binding at 10 µM", "setting": "[6]; [13]", "value": 100, "unit": "%"}, {"measurement": "percent of control binding at 10 µM", "setting": "[7]; [13]", "value": 89, "unit": "%"}, {"measurement": "percent of control binding at 10 µM", "setting": "[8]; [13]", "value": 99, "unit": "%"}, {"measurement": "percent of control binding at 10 µM", "setting": "[9]; [13]", "value": 99, "unit": "%"}, {"measurement": "percent of control binding at 10 µM", "setting": "[10]; [13]", "value": 95, "unit": "%"}, {"measurement": "percent of control binding at 10 µM", "setting": "[11]; [13]", "value": 100, "unit": "%"}]}, {"smiles": "CNCc1ccc(-c2[nH]c3cc(F)cc4c3c2CCNC4=O)cc1", "note": "[Rucaparib]", "values": [{"measurement": "percent of control binding at 10 µM", "setting": "[1]; [14]", "value": 92, "unit": "%"}, {"measurement": "percent of control binding at 10 µM", "setting": "[2]; [14]", "value": 91, "unit": "%"}, {"measurement": "percent of control binding at 10 µM", "setting": "[3]; [14]", "value": 80, "unit": "%"}, {"measurement": "Rucaparib / %Ctrl @ 10000nM", "setting": "[4]; binding competition, % of control", "value": 81, "unit": "%"}, {"measurement": "percent of control binding at 10 µM", "setting": "[5]; [14]", "value": 68, "unit": "%"}, {"measurement": "percent of control binding at 10 µM", "setting": "[6]; [14]", "value": 82, "unit": "%"}, {"measurement": "percent of control binding at 10 µM", "setting": "[7]; [14]", "value": 88, "unit": "%"}, {"measurement": "percent of control binding at 10 µM", "setting": "[9]; [14]", "value": 78, "unit": "%"}, {"measurement": "percent of control binding at 10 µM", "setting": "[10]; [14]", "value": 87, "unit": "%"}, {"measurement": "percent of control binding at 10 µM", "setting": "[11]; [14]", "value": 92, "unit": "%"}]}, {"smiles": "NC(=O)c1cccc2cn(-c3ccc([C@@H]4CCCNC4)cc3)nc12", "note": "[Niraparib]", "values": [{"measurement": "percent of control binding at 10 µM", "setting": "[1]; [15]", "value": 83, "unit": "%"}, {"measurement": "percent of control binding at 10 µM", "setting": "[2]; [15]", "value": 72, "unit": "%"}, {"measurement": "percent of control binding at 10 µM", "setting": "[3]; [15]", "value": 87, "unit": "%"}, {"measurement": "percent of control binding at 10 µM", "setting": "[4]; [15]", "value": 100, "unit": "%"}, {"measurement": "percent of control binding at 10 µM", "setting": "[5]; [15]", "value": 85, "unit": "%"}, {"measurement": "percent of control binding at 10 µM", "setting": "[6]; [15]", "value": 94, "unit": "%"}, {"measurement": "percent of control binding at 10 µM", "setting": "[7]; [15]", "value": 100, "unit": "%"}, {"measurement": "percent of control binding at 10 µM", "setting": "[8]; [15]", "value": 17, "unit": "%"}, {"measurement": "percent of control binding at 10 µM", "setting": "[9]; [15]", "value": 96, "unit": "%"}, {"measurement": "percent of control binding at 10 µM", "setting": "[10]; [15]", "value": 93, "unit": "%"}, {"measurement": "percent of control binding at 10 µM", "setting": "[11]; [15]", "value": 92, "unit": "%"}]}]}
